± gives the expanded uncertainty stated by the source.
Details: 323.15 K, Liquid, Vibrating tube method

With `CCCCCCC(=O)OCC(COC(=O)CCCCCC)(COC(=O)CCCCCC)COC(=O)CCCCCC` [pentaerythritol tetraheptanoate] the mass density (1323 kPa) was 956.5 ± 1.2 kg/m3, the mass density (1328.9 kPa) was 956.5 ± 1.2 kg/m3 and the mass density (1421.1 kPa) was 956.7 ± 1.2 kg/m3. It also gave a mass density (1427.4 kPa) of 956.6 ± 1.2 kg/m3, a mass density (1434.2 kPa) of 956.7 ± 1.2 kg/m3 and a mass density (1442 kPa) of 956.6 ± 1.2 kg/m3. The mass density (1448.9 kPa) was 956.6 ± 1.2 kg/m3, the mass density (1457.1 kPa) was 956.6 ± 1.2 kg/m3 and the mass density (1463.5 kPa) was 956.7 ± 1.2 kg/m3. For the same molecule, the mass density (1470.3 kPa) was 956.7 ± 1.2 kg/m3, the mass density (1477.4 kPa) was 956.6 ± 1.2 kg/m3 and the mass density (1485.6 kPa) was 956.6 ± 1.2 kg/m3. For the same molecule, the mass density (1492.5 kPa) was 956.6 ± 1.2 kg/m3, the mass density (1499.8 kPa) was 956.7 ± 1.2 kg/m3 and the mass density (1507.4 kPa) was 956.7 ± 1.2 kg/m3. It also gave a mass density (1523.2 kPa) of 956.6 ± 1.2 kg/m3, a mass density (1619.7 kPa) of 956.8 ± 1.2 kg/m3 and a mass density (1629.6 kPa) of 956.7 ± 1.2 kg/m3. The mass density (1719.4 kPa) was 956.9 ± 1.2 kg/m3, the mass density (1728.2 kPa) was 956.8 ± 1.2 kg/m3 and the mass density (1736.9 kPa) was 956.8 ± 1.2 kg/m3. It also gave a mass density (1745.9 kPa) of 956.8 ± 1.2 kg/m3, a mass density (1775.6 kPa) of 956.9 ± 1.2 kg/m3 and a mass density (2116.8 kPa) of 957.1 ± 1.2 kg/m3. It also gave a mass density (2152.2 kPa) of 957.1 ± 1.2 kg/m3, a mass density (2381.2 kPa) of 957.2 ± 1.2 kg/m3 and a mass density (2470.4 kPa) of 957.3 ± 1.2 kg/m3. The mass density (2492.4 kPa) was 957.2 ± 1.2 kg/m3, the mass density (2508.4 kPa) was 957.3 ± 1.2 kg/m3 and the mass density (2527.1 kPa) was 957.3 ± 1.2 kg/m3. It also gave a mass density (2559.7 kPa) of 957.3 ± 1.2 kg/m3, a mass density (3115.5 kPa) of 957.7 ± 1.2 kg/m3 and a mass density (3137.8 kPa) of 957.7 ± 1.2 kg/m3. It also gave a mass density (3159 kPa) of 957.8 ± 1.2 kg/m3, a mass density (3207.3 kPa) of 957.8 ± 1.2 kg/m3 and a mass density (3229.7 kPa) of 957.7 ± 1.2 kg/m3. The mass density (3644.1 kPa) was 958 ± 1.2 kg/m3, the mass density (3670.9 kPa) was 958.1 ± 1.2 kg/m3 and the mass density (3703.5 kPa) was 958.2 ± 1.2 kg/m3. For the same molecule, the mass density (3731.4 kPa) was 958.2 ± 1.2 kg/m3, the mass density (3759.3 kPa) was 958.1 ± 1.2 kg/m3 and the mass density (3792.9 kPa) was 958.3 ± 1.2 kg/m3. The mass density (3822.5 kPa) was 958.2 ± 1.2 kg/m3, the mass density (3850.4 kPa) was 958.2 ± 1.2 kg/m3 and the mass density (3884.5 kPa) was 958.2 ± 1.2 kg/m3. The mass density (3913.6 kPa) was 958.2 ± 1.2 kg/m3, the mass density (3943.3 kPa) was 958.4 ± 1.2 kg/m3 and the mass density (4059.8 kPa) was 958.5 ± 1.2 kg/m3. It also gave a mass density (4061.6 kPa) of 958.4 ± 1.2 kg/m3, a mass density (4063.3 kPa) of 958.4 ± 1.2 kg/m3 and a mass density (8709 kPa) of 961.5 ± 1.2 kg/m3. The mass density (8730.4 kPa) was 961.5 ± 1.2 kg/m3, the mass density (8752.3 kPa) was 961.6 ± 1.2 kg/m3 and the mass density (8778.6 kPa) was 961.5 ± 1.2 kg/m3. For the same molecule, the mass density (8802.6 kPa) was 961.5 ± 1.2 kg/m3, the mass density (8824.6 kPa) was 961.6 ± 1.2 kg/m3 and the mass density (8846.3 kPa) was 961.7 ± 1.2 kg/m3. It also gave a mass density (8868.4 kPa) of 961.6 ± 1.2 kg/m3, a mass density (8895.1 kPa) of 961.7 ± 1.2 kg/m3 and a mass density (8917.5 kPa) of 961.5 ± 1.2 kg/m3. For the same molecule, the mass density (8944.2 kPa) was 961.7 ± 1.2 kg/m3, the mass density (8967 kPa) was 961.7 ± 1.2 kg/m3 and the mass density (8990.1 kPa) was 961.6 ± 1.2 kg/m3. For the same molecule, the mass density (9017.1 kPa) was 961.7 ± 1.2 kg/m3, the mass density (9040.1 kPa) was 961.7 ± 1.2 kg/m3 and the mass density (9063.7 kPa) was 961.7 ± 1.2 kg/m3. It also gave a mass density (9091.6 kPa) of 961.8 ± 1.2 kg/m3, a mass density (9116.3 kPa) of 961.8 ± 1.2 kg/m3 and a mass density (9139.9 kPa) of 961.8 ± 1.2 kg/m3. The mass density (9164 kPa) was 961.8 ± 1.2 kg/m3, the mass density (9192.5 kPa) was 961.9 ± 1.2 kg/m3 and the mass density (9216.2 kPa) was 961.8 ± 1.2 kg/m3. For the same molecule, the mass density (9269.5 kPa) was 962 ± 1.2 kg/m3, the mass density (9293.8 kPa) was 961.9 ± 1.2 kg/m3 and the mass density (9318.4 kPa) was 962 ± 1.2 kg/m3. For the same molecule, the mass density (9348.8 kPa) was 961.9 ± 1.2 kg/m3, the mass density (9373.9 kPa) was 961.9 ± 1.2 kg/m3 and the mass density (9399.6 kPa) was 962 ± 1.2 kg/m3. For the same molecule, the mass density (9431.8 kPa) was 962.1 ± 1.2 kg/m3, the mass density (9459.4 kPa) was 962.1 ± 1.2 kg/m3 and the mass density (9492.7 kPa) was 962.1 ± 1.2 kg/m3. The mass density (9518.2 kPa) was 962 ± 1.2 kg/m3, the mass density (9535.7 kPa) was 962 ± 1.2 kg/m3 and the mass density (9548.7 kPa) was 962.2 ± 1.2 kg/m3. For the same molecule, the mass density (9563.6 kPa) was 962.2 ± 1.2 kg/m3, the mass density (9576.4 kPa) was 962.1 ± 1.2 kg/m3 and the mass density (9591.9 kPa) was 962.1 ± 1.2 kg/m3. It also gave a mass density (9617.9 kPa) of 962 ± 1.2 kg/m3, a mass density (9633.3 kPa) of 961.9 ± 1.2 kg/m3 and a mass density (9646.7 kPa) of 962.2 ± 1.2 kg/m3. It also gave a mass density (9660.3 kPa) of 962.1 ± 1.2 kg/m3, a mass density (9673.6 kPa) of 962.1 ± 1.2 kg/m3 and a mass density (9689.4 kPa) of 962.3 ± 1.2 kg/m3. It also gave a mass density (9702.7 kPa) of 962.2 ± 1.2 kg/m3, a mass density (9716.1 kPa) of 962.2 ± 1.2 kg/m3 and a mass density (9732.2 kPa) of 962.1 ± 1.2 kg/m3. It also gave a mass density (9788.5 kPa) of 962.2 ± 1.2 kg/m3, a mass density (9802.3 kPa) of 962.3 ± 1.2 kg/m3 and a mass density (9818.5 kPa) of 962.2 ± 1.2 kg/m3. It also gave a mass density (9832.1 kPa) of 962.3 ± 1.2 kg/m3, a mass density (9845.9 kPa) of 962.3 ± 1.2 kg/m3 and a mass density (9862.6 kPa) of 962.3 ± 1.2 kg/m3. The mass density (9876.5 kPa) was 962.3 ± 1.2 kg/m3, the mass density (9890.5 kPa) was 962.4 ± 1.2 kg/m3 and the mass density (9906.8 kPa) was 962.3 ± 1.2 kg/m3. It also gave a mass density (9920.8 kPa) of 962.3 ± 1.2 kg/m3, a mass density (9951.3 kPa) of 962.3 ± 1.2 kg/m3 and a mass density (10010 kPa) of 962.4 ± 1.2 kg/m3. It also gave a mass density (10071 kPa) of 962.3 ± 1.2 kg/m3, a mass density (10088 kPa) of 962.5 ± 1.2 kg/m3 and a mass density (10103 kPa) of 962.5 ± 1.2 kg/m3. The mass density (10117 kPa) was 962.4 ± 1.2 kg/m3.

Source: the NIST ThermoML archive (doi:10.1021/je060271a)
